Laboratory results: publication PMC9146228, “Bioactivity of Novel Pyrazole-Thiazolines Scaffolds against Trypanosoma cruzi: Computational Approaches and 3D Spheroid Model on Drug Discovery for Chagas Disease” (Pharmaceutics, 2022)
Read-outs that look alike come from different tables or passages of the source.

Tests used:
[1] = system: T. cruzi (Dm28c-Luc) trypomastigotes; assay: microbe, parasite or virus in culture; type: cell-based, Trypanosoma cruzi
Description: The screening assays were performed with T. cruzi clone Dm28c (TcI) genetically modified to express luciferase gene (Dm28c-Luc), kindly provided by Dr. Cristina Henriques. Trypomastigotes were isolated from T. cruzi-infected Vero cell monolayers (10:1 parasites/host cell ratio). On the 4th day post-infection (dpi), free trypomastigotes in the culture supernatant were harvested, and the number of parasites/mL was quantified in a Neubauer chamber.
The trypanocidal activity of the pyrazole-thiazoline derivatives was evaluated against trypomastigote and intracellular amastigote forms of T. cruzi (Dm28c-Luc). Tissue-derived trypomastigotes (1 × 10^6 parasites/well) were incubated with pyrazole-thiazoline derivatives and Bz in different concentrations (0.41–100 µM) for 24 h at 37 °C in a humidified atmosphere and 5% CO2. The parasite viability was determined by the addition of luciferin (300 µg/mL), followed by luminescence detection on the GloMax microplate reader (Promega Corporation, Madison, WI, USA).
(§1) After 72 h of treatment, luciferin (300 µg/mL) was added to the culture, and the viability of the parasites was assessed by reading the luminescent signal on the GloMax reader (Promega Corporation, Madison, WI, USA). Controls were also performed in non-toxic concentrations of DMSO (≤ 1%). The concentration that reduces the number of viable parasites by 50% (IC50) or 90% (IC90) was calculated by linear regression. The selectivity index (SI) was calculated as CC50/IC50 for each parasite form.

[2] = system: T. cruzi (Dm28c-Luc) intracellular amastigotes; assay: Trypanocidal activity against intracellular amastigotes in infected Vero cell monolayers; type: cell-based, Trypanosoma cruzi; conditions: for IC90: read-out: Trypanocidal Activity Intracellular Amastigotes IC90; for Intracellular Amastigotes SI (CC50 of Vero cells/IC50): selectivity index vs Vero cells
Description: The susceptibility of intracellular amastigotes to pyrazole-thiazoline derivatives (series 1 and 2) was evaluated using 24 h T. cruzi-infected Vero cell monolayers (10:1 parasite/host cell ratio). Then, the cultures were washed with PBS to remove non-internalized parasites, and 200 μL of fresh medium with a serial dilution of pyrazole-thiazoline derivatives and Bz (0.41–100 µM) was added for 72 h at 37 °C.
as §1

[3] = Cytotoxicity in vitro assay (CellTiter-Glo); type: cell-based; conditions: African green monkey, Vero cells, mean ± SD
Description: Vero cells, obtained from the Rio de Janeiro Cell Bank (BCRJ code 0245), were dissociated with trypsin–EDTA solution (0.025%), and maintained in RPMI 1640 medium supplemented with 10% fetal bovine serum (FBS) at 37 °C in a humidified atmosphere of 5% CO2.
The compound toxicity was evaluated in Vero cell cultures. Briefly, Vero cells were seeded in 96-well white culture plates at a density of 1.5 × 10^4 cells/well for 24 h at 37 °C and 5% CO2. Thereafter, the cell monolayers were washed with phosphate-buffered saline (PBS) and 200 μL of fresh medium with a serial dilution of the pyrazole-thiazoline derivatives and Bz (1.9–500 µM) added. The cell viability was determined by luminescent assay using the CellTiter-Glo Kit (Promega Corporation, Madison, WI, USA) based on the ATP level. After 72 h of treatment, 20 μL of CellTiter-Glo solution was added per well, and cultures were kept for 2 min under agitation. The luminescent signal was read on the GloMax reader (Promega Corporation, Madison, WI, USA). The concentration of compounds that reduced 50% of cell viability (CC50) was calculated by linear regression. At least three independent assays were performed in duplicate.

[4] = system: T. cruzi (Dm28c-Luc)-infected Vero cell spheroids; assay: 3D culture model: T. cruzi-infected Vero cell spheroids; type: cell-based, Trypanosoma cruzi; conditions: for DAPI staining fluorescence microscopy of infected microtissue: 100 μM; for parasite load, arbitrary luminescence unit (ALU): 72 h, concentration higher than IC90 (100 μM in Figure 6 legend), untreated ALU = 166,678 ± 22,824
Description: Tridimensional Vero cell cultures were obtained as previously described. Briefly, the isolated cells (2 × 10^4/well) were cultured in 96-well U-bottom plates previously coated with 1% agarose. The spheroids were kept for 5 days at 37 °C in RPMI 1640 medium supplemented with 10% FBS for complete three-dimensional organization. Both 2D and 3D culture models were used for trypanocidal activity assays.
Vero cell spheroids were infected for 24 h with 2 × 10^5 trypomastigotes (Dm28c-Luc). […] Parasite load was assessed by the luminescence reaction after adding the luciferase substrate (luciferin 300 µg/mL). In addition, fluorescence microscopy images of untreated and treated T. cruzi-infected spheroids were acquired after fixing the cultures with 4% paraformaldehyde in PBS and 4′,6-diamidino-2-phenylindole (DAPI) staining, a DNA dye. The samples were observed under the Zeiss Axio Imager M2 fluorescence microscope (Carl Zeiss, Baden-Württemberg, Germany).

[5] = system: T. cruzi Dm28c-Luc in Vero cell cultures; assay: Reversibility (washout) assay; type: cell-based, Trypanosoma cruzi; conditions: 100 µM, 72 h treatment then 72 h drug-free; for inhibition at 100 µM: Trypanosoma cruzi, Vero, read-out: inhibition of cell monolayer infection (intracellular amastigotes) after washout
Description: Then, the cultures were washed with PBS, and maintained for another 72 h at 37 °C in a drug-free medium. Trypomastigotes released in the culture supernatant were detected by transferring the culture medium to 96-well plates, followed by luciferin (300 µg/mL) addition. Viable intracellular amastigotes were also accessed by adding luciferin solution to the cell monolayers.

[6] = system: T. cruzi (strain Silvio X10/7); design: method as in PMID 30001347; conditions: 16 days treatment of infected Vero cell monolayers; cited from earlier work
[7] = system: T. cruzi cysteine proteases (trypomastigote protein extract); assay: Proteinase activity in solution (Z-FR-AMC); type: biochemical, Trypanosoma cruzi; conditions: for maximum inhibition of cysteine protease activity: up to 100 µM, Z-FR-AMC substrate
Description: Trypomastigote protein extracts (Dm28c-Luc; 10^8 parasites/mL) were obtained as previously described. The cysteine protease activity of the total protein extracts (5 µg) was measured using the reaction buffer (CH3COONa 10 mM, pH 5.0 containing 1 mM DTT), in the presence of the fluorogenic peptide substrate […], CBZ-L-Phenylalanyl-l-Arginine amide (Z -FR-AMC), and serial dilutions of pyrazole-thiazolines derivatives (100–6.25 µM). The samples were incubated for 45 min at room temperature. The variation in arbitrary fluorescence units (AFU), corresponding to the enzymatic cleavage of the fluorogenic substrate, was monitored in a SpectraMax M2e reader (Molecular Devices, Sunnyvale, CA, USA) for 1 h, with excitation values at 370 nm and emission values at 460 nm. Extracts incubated with 0.5% DMSO or with cysteine protease inhibitor E-64 were used as […]. […] The inhibitory activity was expressed as percentage inhibition.

[8] = Trypanosoma cruzi; Dm28c-Luc, 24 h, mean ± SD; read-out: Trypanocidal Activity Trypomastigotes IC90
[9] = selectivity index vs Vero cells
[10] = Dm28c-Luc, 24 h, mean ± SD; read-out: Trypanocidal Activity Trypomastigotes IC50
[11] = Trypanosoma cruzi, 24 h, Dm28c-Luc, 24 h, mean ± SD; read-out: Trypanocidal Activity Trypomastigotes IC50
[12] = Dm28c-Luc in Vero cells, 72 h, mean ± SD, read-out: Trypanocidal Activity Intracellular Amastigotes IC50
[13] = Trypanosoma cruzi, Vero, 72 h, Dm28c-Luc in Vero cells, 72 h, mean ± SD, read-out: Trypanocidal Activity Intracellular Amastigotes IC50
[14] = Trypanosoma cruzi, Vero, pIC50 = −log IC50, Dm28c-Luc clone, read-out: Intracellular Amastigotes pIC50 (converted)
[15] = Trypanosoma cruzi, Dm28c-Luc in Vero cells, 72 h, mean ± SD

Row | SMILES | IC90 [1, 8] [µM] | Trypomastigotes SI (CC50 of Vero cells/IC50) [1, 9] | CC50 at 72 h [3] [µM] | DAPI staining fluorescence microscopy of infected microtissue [4] | parasite load, arbitrary luminescence unit (ALU) [4] | IC50 [1, 11] [µM] | IC50 [2, 12] [µM] | IC50 [2, 13] [µM] | IC50 [2, 14] [µM] | IC90 [2, 15] [µM] | Intracellular Amastigotes SI (CC50 of Vero cells/IC50) [2] | melting point [°C] | also measured
1 | O=C(Cn1ccnc1[N+](=O)[O-])NCc1ccccc1 [Bz, benznidazole, reference compound] | 95.9 ± 4.7 | >18.9 | > 500 | drastic reduction in the infection profile | 20,024 ± 2796 ALU |  |  |  |  |  |  |  | IC50 ([1]; Trypanosoma cruzi; Dm28c-Luc, 24 h, mean ± SD; read-out: Trypanocidal Activity Trypomastigotes IC50): 19.6 ± 2.3 µM; IC50 ([2]; Trypanosoma cruzi, Vero, 72 h, read-out: Trypanocidal Activity Intracellular Amastigotes IC50): 3.3 ± 1.1 µM; IC90 ([2]; Trypanosoma cruzi, Vero, 72 h): 13.7 ± 4.2 µM; IC50 ([2]; Trypanosoma cruzi, Vero, read-out: Intracellular Amastigotes pIC50 (converted)): 3.31 µM; parasite clearance in supernatant and cell monolayers after washout [5]: sustained the parasite clearance; parasite relapse / clearance after prolonged treatment [6]: prevention of spontaneous parasite relapse for up to 60 days
2 | Clc1ccc(-n2cc(C3=NCCS3)cn2)cc1Cl [Compound 2e, 2-(1-(3,4-dichlorophenyl)-1H-pyrazol-4-yl)-4,5-dihydrothiazole] | 6.9 ± 2 |  |  | reduction in parasite load | 15,110 ± 1990 ALU | ≤ 2.1 | 7.84 ± 1 | < 10 | < 6.92 | 30.4 ± 3.7 |  |  | IC50 [1, 10]: 1.9 ± 0.4 µM; inhibition at 100 µM [5]: 69%; maximum inhibition of cysteine protease activity [7]: ≤ 10%
3 | Fc1ccc(-n2cc(C3=NCCS3)cn2)cc1 [Compound 2g, 2-(1-(4-fluorophenyl)-1H-pyrazol-4-yl)-4,5-dihydrothiazole] | 30.1 ± 2.8 | 7.3 | 58.6 ± 8.11 |  |  | 7.9 ± 1 |  | 14 ± 1.8 | 14.1 | 98 ± 3.4 | 4.18 | 131 to 133 | 
4 | Fc1cccc(-n2cc(C3=NCCS3)cn2)c1 [Compound 2h, 2-(1-(3-fluorophenyl)-1H-pyrazol-4-yl)-4,5-dihydrothiazole] | 36.3 ± 3.2 | 3.8 | 37.9 ± 4.8 |  |  | 9.8 ± 1.5 | 9.1 ± 1.7 | < 10 | ~10 | 76.3 ± 6.1 | 4.19 | 92 to 94 | 
5 | Brc1ccc(-n2cc(C3=NCCS3)cn2)cc1 [Compound 2i, 2-(1-(4-bromophenyl)-1H-pyrazol-4-yl)-4,5-dihydrothiazole] | 13.3 ± 2.8 |  |  | reduction in parasite load | 25,788 ± 2776 ALU | ≤ 2.1 | 6.8 ± 1.1 | < 10 | < 6.92 | 27.1 ± 3.6 | 31.8 |  | IC50 [1, 10]: 2.1 ± 0.9 µM; inhibition at 100 µM [5]: 89%; maximum inhibition of cysteine protease activity [7]: ≤ 10%
6 | Brc1cccc(-n2cc(C3=NCCS3)cn2)c1 [Compound 2j, 2-(1-(3-bromophenyl)-1H-pyrazol-4-yl)-4,5-dihydrothiazole] | 48.2 ± 4.1 | 7.11 | 64.5 ± 7.3 |  |  | 9.1 ± 0.9 | 8.1 ± 1.3 | < 10 | ~10 | 31.1 ± 3.1 | 7.9 | 104 to 106 | 
7 | COc1ccc(-n2cc(C3=NCCS3)cn2)cc1 [Compound 2k, 2-(1-(4-methoxyphenyl)-1H-pyrazol-4-yl)-4,5-dihydrothiazole] | 36.1 ± 2.6 | 36.1 | 110 ± 9.4 |  |  | 3.1 ± 0.3 |  | 22.4 ± 2.8 | 22.9 | 53 ± 9.8 | 4.9 | 114 to 116 | 
8 | Clc1cccc(-n2cc(C3=NCCS3)cn2)c1Cl [Compound 2l, 2-(1-(2,3-dichlorophenyl)-1H-pyrazol-4-yl)-4,5-dihydrothiazole] | > 100 | 3.44 | 88.7 ± 9.3 |  |  | 25.8 ± 1.9 |  | 25.3 ± 2.4 | 25.7 | 75.5 ± 8.3 | 3.5 | 112 to 114 | 
9 | CC(C)C[C@H](NC(=O)[C@H]1O[C@@H]1C(=O)O)C(=O)NCCCCN=C(N)N [Compound E-64, E-64, reference compound] |  |  |  |  |  |  |  |  |  |  |  |  | inhibition of cysteine protease activity ([7]; from the lowest concentration analyzed (6.25 µM)): more than 80%
10 | CC[C@@H]([C@H](C)O)n1ncn(-c2ccc(N3CCN(c4ccc(OC[C@@H]5CO[C@@](Cn6cncn6)(c6ccc(F)cc6F)C5)cc4)CC3)cc2)c1=O [posaconazole] |  |  |  |  |  |  |  |  |  |  |  |  | parasite relapse / clearance after prolonged treatment [6]: unable to achieve parasite clearance
